In ChEMBL document CHEMBL2346573, “Probing the role of the vancomycin e-ring aryl chloride: selective divergent synthesis and evaluation of alternatively substituted E-ring analogues” (2013):
≈ marks a conversion by molar mass, not a printed value.

What was measured:
[1] = Binding affinity to N,N'-Ac2-L-Lys-D-Ala-D-Ala (unknown origin)
Enterococcus faecalis [2] = assay: Antimicrobial activity against VanB vancomycin-resistant Enterococcus faecalis ATCC 51299 after 24 hrs by microtiter plate assay; format: functional; conditions: ATCC 51299, 24 h
Staphylococcus aureus [3] = assay: Antimicrobial activity against vancomycin-sensitive Staphylococcus aureus ATCC 25923 after 24 hrs by microtiter plate assay; format: functional; conditions: ATCC 25923, 24 h
[4] = Ratio of MIC for VanB vancomycin-resistant Enterococcus faecalis ATCC 51299 to MIC for vancomycin-sensitive Staphylococcus aureus ATCC 25923; format: functional
Enterococcus faecalis [5] = assay: Antimicrobial activity against VanA vancomycin-resistant Enterococcus faecalis BM4166; format: functional
Enterococcus faecalis [6] = assay: Antimicrobial activity against VanB vancomycin-resistant Enterococcus faecalis ATCC 51299; format: functional
Staphylococcus aureus [7] = assay: Antimicrobial activity against Staphylococcus aureus ATCC 25923; format: functional

SMILES | Ka [1] [×10⁵ /M] | MIC (Enterococcus faecalis [2]) [µg/mL] | MIC (Staphylococcus aureus [3]) [µg/mL] | Ratio [4] | MIC (Enterococcus faecalis [5]) [µg/mL] | MIC (Enterococcus faecalis [6]) [µg/mL] | MIC (Staphylococcus aureus [7]) [µg/mL]
CN[C@H](CC(C)C)C(=O)N[C@H]1C(=O)N[C@@H](CC(N)=O)C(=O)N[C@H]2C(=O)N[C@H]3C(=O)N[C@H](C(=O)N[C@H](C(=O)OC)c4cc(OC)cc(OC)c4-c4cc3ccc4OC)[C@H](O)c3ccc(c(Cl)c3)Oc3cc2cc(c3OC)Oc2ccc(cc2C)[C@H]1O | 1.2 | 5 (≈ 4.19 µM) | 2.5 (≈ 2.09 µM) | – | – | – | –
CN[C@H](CC(C)C)C(=O)N[C@H]1C(=O)N[C@@H](CC(N)=O)C(=O)N[C@H]2C(=O)N[C@H]3C(=O)N[C@H](C(=O)N[C@H](C(=O)OC)c4cc(OC)cc(OC)c4-c4cc3ccc4OC)[C@H](O)c3ccc(c(Cl)c3)Oc3cc2cc(c3OC)Oc2ccc(cc2B(O)O)[C@H]1O | 0.23 | 10 (≈ 8.17 µM) | 5 (≈ 4.09 µM) | – | – | – | –
CN[C@H](CC(C)C)C(=O)N[C@H]1C(=O)N[C@@H](CC(N)=O)C(=O)N[C@H]2C(=O)N[C@H]3C(=O)N[C@H](C(=O)N[C@H](C(=O)OC)c4cc(OC)cc(OC)c4-c4cc3ccc4OC)[C@H](O)c3ccc(c(Cl)c3)Oc3cc2cc(c3OC)Oc2ccc(cc2N(C)C)[C@H]1O | 0.34 | 10 (≈ 8.18 µM) | 5 (≈ 4.09 µM) | – | – | – | –
CN[C@H](CC(C)C)C(=O)N[C@H]1C(=O)N[C@@H](CC(N)=O)C(=O)N[C@H]2C(=O)N[C@H]3C(=O)N[C@H](C(=O)N[C@H](C(=O)OC)c4cc(OC)cc(OC)c4-c4cc3ccc4OC)[C@H](O)c3ccc(c(Cl)c3)Oc3cc2cc(c3OC)Oc2ccc(cc2O)[C@H]1O | 0.88 | 5 (≈ 4.18 µM) | 5 (≈ 4.18 µM) | 1 | – | – | –
CN[C@H](CC(C)C)C(=O)N[C@H]1C(=O)N[C@@H](CC(N)=O)C(=O)N[C@H]2C(=O)N[C@H]3C(=O)N[C@H](C(=O)N[C@H](C(=O)O)c4cc(O)cc(O)c4-c4cc3ccc4O)[C@H](O)c3ccc(c(Cl)c3)Oc3cc2cc(c3O)Oc2ccc(cc2)[C@H]1O | 0.68 | 80 (≈ 72.1 µM) | 5 (≈ 4.51 µM) | – | – | – | –
CN[C@H](CC(C)C)C(=O)N[C@H]1C(=O)N[C@@H](CC(N)=O)C(=O)N[C@H]2C(=O)N[C@H]3C(=O)N[C@H](C(=O)N[C@H](C(=O)OC)c4cc(OC)cc(OC)c4-c4cc3ccc4OC)[C@H](O)c3ccc(c(Cl)c3)Oc3cc2cc(c3OC)Oc2ccc(cc2)[C@H]1O | 0.71 | 5 (≈ 4.24 µM) | 5 (≈ 4.24 µM) | 1 | – | – | –
CN[C@H](CC(C)C)C(=O)N[C@H]1C(=O)N[C@@H](CC(N)=O)C(=O)N[C@H]2C(=O)N[C@H]3C(=O)N[C@H](C(=O)N[C@H](C(=O)O)c4cc(O)cc(O)c4-c4cc3ccc4O)[C@H](O)c3ccc(c(Cl)c3)Oc3cc2cc(c3O)Oc2ccc(cc2Br)[C@H]1O | 1.1 | 40 (≈ 33.7 µM) | 2.5 (≈ 2.1 µM) | – | – | – | –
CN[C@H](CC(C)C)C(=O)N[C@H]1C(=O)N[C@@H](CC(N)=O)C(=O)N[C@H]2C(=O)N[C@H]3C(=O)N[C@H](C(=O)N[C@H](C(=O)OC)c4cc(OC)cc(OC)c4-c4cc3ccc4OC)[C@H](O)c3ccc(c(Cl)c3)Oc3cc2cc(c3OC)Oc2ccc(cc2[N+](=O)[O-])[C@H]1O | 0.097 | > 40 | > 40 | – | – | – | –
CN[C@H](CC(C)C)C(=O)N[C@H]1C(=O)N[C@@H](CC(N)=O)C(=O)N[C@H]2C(=O)N[C@H]3C(=O)N[C@H](C(=O)N[C@H](C(=O)O)c4cc(O)cc(O)c4-c4cc3ccc4O)[C@H](O)c3ccc(c(Cl)c3)Oc3cc2cc(c3O)Oc2ccc(cc2O)[C@H]1O | 0.53 | 40 (≈ 35.5 µM) | 5 (≈ 4.44 µM) | – | – | – | –
CN[C@H](CC(C)C)C(=O)N[C@H]1C(=O)N[C@@H](CC(N)=O)C(=O)N[C@H]2C(=O)N[C@H]3C(=O)N[C@H](C(=O)N[C@H](C(=O)O)c4cc(O)cc(O)c4-c4cc3ccc4O)[C@H](O)c3ccc(c(Cl)c3)Oc3cc2cc(c3O[C@@H]2O[C@H](CO)[C@@H](O)[C@H](O)[C@H]2O[C@H]2C[C@](C)(N)[C@H](O)[C@H](C)O2)Oc2ccc(cc2Cl)[C@H]1O [VANCOMYCIN] | – | 120 (≈ 82.8 µM) | 1.25 (≈ 0.863 µM) | – | > 100 | 120 (≈ 82.8 µM) | –
CN[C@H](CC(C)C)C(=O)N[C@H]1C(=O)N[C@@H](CC(N)=O)C(=O)N[C@H]2C(=O)N[C@H]3C(=O)N[C@H](C(=O)N[C@H](C(=O)OC)c4cc(OC)cc(OC)c4-c4cc3ccc4OC)[C@H](O)c3ccc(c(Cl)c3)Oc3cc2cc(c3OC)Oc2ccc(cc2C#N)[C@H]1O | 1.1 | 5 (≈ 4.15 µM) | 2.5 (≈ 2.08 µM) | – | – | – | –
CN[C@H](CC(C)C)C(=O)N[C@H]1C(=O)N[C@@H](CC(N)=O)C(=O)N[C@H]2C(=O)N[C@H]3C(=O)N[C@H](C(=O)N[C@H](C(=O)OC)c4cc(OC)cc(OC)c4-c4cc3ccc4OC)[C@H](O)c3ccc(c(Cl)c3)Oc3cc2cc(c3OC)Oc2ccc(cc2I)[C@H]1O | 1.3 | 10 (≈ 7.66 µM) | 2.5 (≈ 1.91 µM) | – | – | – | –
CN[C@H](CC(C)C)C(=O)N[C@H]1C(=O)N[C@@H](CC(N)=O)C(=O)N[C@H]2C(=O)N[C@H]3C(=O)N[C@H](C(=O)N[C@H](C(=O)OC)c4cc(OC)cc(OC)c4-c4cc3ccc4OC)[C@H](O)c3ccc(c(Cl)c3)Oc3cc2cc(c3OC)Oc2ccc(cc2N=[N+]=[N-])[C@H]1O | 1.2 | 5 (≈ 4.1 µM) | 1.25 (≈ 1.02 µM) | – | – | – | –
CN[C@H](CC(C)C)C(=O)N[C@H]1C(=O)N[C@@H](CC(N)=O)C(=O)N[C@H]2C(=O)N[C@H]3C(=O)N[C@H](C(=O)N[C@H](C(=O)OC)c4cc(OC)cc(OC)c4-c4cc3ccc4OC)[C@H](O)c3ccc(c(Cl)c3)Oc3cc2cc(c3OC)Oc2ccc(cc2Cl)[C@H]1O | 1.3 | 2.5 (≈ 2.06 µM) | 1.25 (≈ 1.03 µM) | – | 50 (≈ 41.2 µM) | 2.5 (≈ 2.06 µM) | 1.25 (≈ 1.03 µM)
COC(=O)[C@H]1NC(=O)[C@H]2NC(=O)[C@H](NC(=O)[C@@H]3NC(=O)[C@H]4NC(=O)[C@@H](Cc5ccc(c(Cl)c5)Oc5cc3cc(c5OC)Oc3ccc(cc3Cl)[C@H]2O)NC(=O)[C@H](N)c2ccc(OC)c(c2)Oc2cc(OC)cc4c2)c2ccc(OC)c(c2)-c2c(OC)cc(OC)cc21 | – | – | – | – | > 100 | 3.2 (≈ 2.47 µM) | 3.2 (≈ 2.47 µM)
CN[C@H](CC(C)C)C(=O)N[C@H]1C(=O)N[C@@H](CC(N)=O)C(=O)N[C@H]2C(=O)N[C@H]3C(=O)N[C@H](C(=O)N[C@H](C(=O)OC)c4cc(OC)cc(OC)c4-c4cc3ccc4OC)[C@H](O)c3ccc(c(Cl)c3)Oc3cc2cc(c3OC)Oc2ccc(cc2Br)[C@H]1O | 1.1 | 5 (≈ 3.97 µM) | 2.5 (≈ 1.99 µM) | – | – | – | –
CN[C@H](CC(C)C)C(=O)N[C@H]1C(=O)N[C@@H](CC(N)=O)C(=O)N[C@H]2C(=O)N[C@H]3C(=O)N[C@H](C(=O)N[C@H](C(=O)O)c4cc(O)cc(O)c4-c4cc3ccc4O)[C@H](O)c3ccc(c(Cl)c3)Oc3cc2cc(c3O)Oc2ccc(cc2Cl)[C@H]1O [VANCOMYCIN AGLYCON] | 1.4 | 40 (≈ 35 µM) | 1.25 (≈ 1.09 µM) | – | > 100 | > 100 | 0.8 (≈ 0.699 µM)
CN[C@H](CC(C)C)C(=O)N[C@H]1C(=O)N[C@@H](CC(N)=O)C(=O)N[C@H]2C(=O)N[C@H]3C(=O)N[C@H](C(=O)N[C@H](C(=O)OC)c4cc(OC)cc(OC)c4-c4cc3ccc4OC)[C@H](O)c3ccc(c(Cl)c3)Oc3cc2cc(c3OC)Oc2ccc(cc2C(=O)OC)[C@H]1O | 1 | 10 (≈ 8.08 µM) | 2.5 (≈ 2.02 µM) | – | – | – | –
CN[C@H](CC(C)C)C(=O)N[C@H]1C(=O)N[C@@H](CC(N)=O)C(=O)N[C@H]2C(=O)N[C@H]3C(=O)N[C@H](C(=O)N[C@H](C(=O)OC)c4cc(OC)cc(OC)c4-c4cc3ccc4OC)[C@H](O)c3ccc(c(Cl)c3)Oc3cc2cc(c3OC)Oc2ccc(cc2C(F)(F)F)[C@H]1O | 1.2 | 20 (≈ 16 µM) | 2.5 (≈ 2 µM) | 8 | – | – | –
N[C@H]1C(=O)N[C@@H]2Cc3ccc(c(Cl)c3)Oc3cc4cc(c3O)Oc3ccc(cc3Cl)[C@@H](O)[C@@H]3NC(=O)[C@H](NC(=O)[C@@H]4NC(=O)[C@@H](NC2=O)c2cc(O)cc(c2)Oc2cc1ccc2O)c1ccc(O)c(c1)-c1c(O)cc(O)cc1[C@@H](C(=O)O)NC3=O [TEICOPLANIN AGLYCON] | – | – | – | – | > 100 | 25 (≈ 20.9 µM) | 1.6 (≈ 1.33 µM)
CN[C@H](CC(C)C)C(=O)N[C@H]1C(=O)N[C@@H](CC(N)=O)C(=O)N[C@H]2C(=O)N[C@H]3C(=O)N[C@H](C(=O)N[C@H](C(=O)OC)c4cc(OC)cc(OC)c4-c4cc3ccc4OC)[C@H](O)c3ccc(c(Cl)c3)Oc3cc2cc(c3OC)Oc2ccc(cc2OC)[C@H]1O | 1.2 | 5 (≈ 4.13 µM) | 2.5 (≈ 2.07 µM) | – | – | – | –
